# Data from patent publication US20050221456A1, “Use of indanoyl amide to stimulate secondary metabolism in Taxus sp” (Phyton Biotech, Inc., priority 2004, published 2005).
# Key:
# [1] = test system: Taxus chinensis cells; assay: Effect of 6-BII on taxane production in suspension culture (14 days); format: cell-based; details: for Baccatin III / Paclitaxel / Total taxanes: 14 days in production medium with NAA, MDCA, GLN, silver thiosulfate
# Description: (§1) This experiment was carried out according to the following parameters. Taxus chinensis cells were cultivated as callus and then as suspended cells on growth medium (Medium A, Table B) according to the methods described above. After seven days of cultivation in this medium, the suspended cells were substantially separated from this medium and placed at approximately 20% (w/v) fresh cells into a basal production medium (Medium B, Table B) with an initial pH of 5.8. In addition to the ingredients listed in Table B, the medium comprised 20 micromol/l NAA, 20 micromol/l MDCA, 5 mmol/l GLN, and 50 micromol/l silver as a thiosulfate complex. The gas phase was controlled to oxygen at 90-97% of the levels in air and 2.5-6% CO2; the temperature was held at 25±2 degrees Celsius. The cells were cultivated in the dark and were agitated at 150-200 rpm for the duration of the experiment. After 14 days of cultivation in production medium, the culture was harvested for taxanes.
# [2] = test system: Taxus chinensis cells; assay: Effect of silver nitrate and 6-EII on taxane production (14 days); format: cell-based; details: silver as nitrate salt or thiosulfate complex
# Text: Taxus chinensis cells were cultivated as callus and then as suspended cells on growth medium (Table B, Medium A) according to the methods described above in Examples 1 and 2. After seven days of cultivation in this medium, the suspended cells were substantially separated from this medium and placed at ca. 20% (w/v) fresh cells into Medium B (Table B) at an initial pH of 5.8. In addition to the components listed in Table B, 20 micromol/l NAA, 20 micromol/l MDCA, 5 mmol/l GLN, MJS or 6-EII and silver as a nitrate salt or thiosulfate complex were added to the medium at various levels. The gas phase was controlled to oxygen at 90-97% of the levels in air and CO2 at 2.5-6%; the temperature was held at 25±2 degrees Celsius. The cells were cultivated in the dark and were agitated at 150-200 rpm for the duration of the experiment. After 14 days of cultivation in production medium, the culture was harvested for taxanes.
# [3] = test system: Taxus chinensis cells; assay: Fed batch addition of 6-EII, taxane production in Taxus chinensis suspension culture (12 days); format: cell-based; details: for Baccatin III / Paclitaxel: harvest after 12 days in production medium; for Total: total taxanes, harvest after 12 days
# Text: The medium also contains an indanoyl amide as described in the present application, optionally in combination with one or more jasmonic acid-related substance, and these materials may be added at the beginning of the culture, after the exponential growth phase, or intermittantly throughout the culture period. The other ingredients of the medium may be added all at one time or at different times during the cultivation and may be fed continuously or intermittently. The ingredients may be added either before or after the inclusion of plant cells in the culture broth. Further, nutrients or other ingredients may be additionally added during cultivation, if deemed useful. Optionally, the medium may be changed after a suitable period of cultivation whereby the cells are freshly exposed to a medium containing similar ingredients as described above. Such changes could involve changes to the amounts of sugars such as glucose, fructose, sucrose, maltose, etc., nitrogen sources such as nitrate, ammonium, or amino acids or casamino acids, etc. After a period of cultivation, the culture is harvested and the levels of taxanes are quantified using HPLC and specific taxanes are identified using LC/MS/MS. Taxanes can be recovered from these cultures by appropriate extraction and purification procedures. For Experiments 2-8, Taxus cells were cultivated as callus cultures on solid medium and then further cultivated as suspensions of cell aggregates in liquid medium. Although taxanes can be produced by cultivation on solid medium, the use of liquid medium is preferred. The temperature of cultivation was controlled between 20 and 30 degrees Celsius. This experiment was carried out according to the following parameters. […] Taxus chinensis cells were cultivated as callus and then as suspended cells in growth medium (Medium A shown in Table B) containing 1% maltose and B5 salts according to the methods described above. After seven days of cultivation in this medium, the suspended cells were substantially separated from this medium and placed at about 20% (w/v) fresh cells into a production medium consisting of about 20% (v/v) spent growth medium and 80% (v/v) basal production medium (Medium B shown in Table B, but 1.25-fold concentrated) with an initial pH of 5.8 and containing 20 micromol/l MDCA and 50 micromol/l SLTS (Silver Thiosulfate). […] The gas phase was controlled to 25% oxygen and 4.5% CO2 (balance nitrogen) and the temperature was held at 25±2 degrees Celsius. The cells were cultivated in the dark and were agitated at 100-150 rpm for the duration of the experiment. After 12 days of cultivation in production medium, the culture was harvested for taxanes.
# [4] = test system: Taxus chinensis cells; assay: Effect of 6-EII in combination with other medium ingredients on taxane yield (14 days); format: cell-based
# Description: This experiment was carried out according to the following parameters. Taxus chinensis cells were cultivated as callus and then as suspended cells on growth Medium A (Table B), according to the methods described above. After seven days of cultivation in this medium, the suspended cells were substantially separated from this medium and placed at approximately 20% (w/v) fresh cells into a basal production medium (Medium B, Table B) with an initial pH of 5.8. In addition to the components listed in Medium B, the medium additionally comprised 5 millimol/l glutamine. The gas phase was controlled to oxygen at 90-97% of the value in air and 2.5-6% CO2; the temperature was held at 25±2 degrees Celsius. The cells were cultivated in the dark and were agitated at 150-200 rpm for the duration of the experiment. After 14 days of cultivation in production medium, the culture was harvested for taxanes.
# [5] = test system: Taxus cells; assay: Batch addition of 6-EII in combination with other medium components, taxane production; format: cell-based; details: batch mode
# Description: Taxus cells were cultivated using procedures similar to those used for Example 2. The media were composed of different combinations of 6-EII (or methyl jasmonate-MJS), NAA, SLTS, MDCA and Glutamine. All ingredients were added in a batch mode, i.e., all at once.
# [6] = test system: Taxus chinensis cells; assay: Effect of 1-OII on accumulation of taxanes by Taxus cell suspension culture (14 days); format: cell-based; details: for Baccatin III / Paclitaxel / Total taxanes: 14 days in production medium with NAA, MDCA, GLN, silver thiosulfate
# Description: as §1, with “ca.” for “approximately”, “also contained” for “comprised”, “value” for “levels”
# [7] = test system: touch-sensitive tendrils of Bryonia diocia; details: quoted from Schuler et al. WO 02/55480; cited from earlier work
# [8] = test system: paclitaxel and taxanes biosynthesis; details: teaching of EP 727492 (Yukimune et al.); cited from earlier work
# [9] = test system: tendril coiling; details: quoted from Haider et al.; cited from earlier work
# [10] = test system: Eschscholzia californica Cell Cultures; details: compared with the octadecanoids or coronatine; quoted from Haider et al.; cited from earlier work
# [11] = cumulative 12-day fed batch dose 20 micromol/l
# [12] = cumulative 12-day fed batch dose 50 micromol/l
# [13] = cumulative 12-day fed batch dose 75 micromol/l
# [14] = cumulative 12-day fed batch dose 100 micromol/l
# [15] = cumulative 12-day fed batch dose 30 micromol/l
molecule,measurement,setting,value
6-Bromoindanoyl isoleucine [6-BII],induction of taxanes production,[1]; T. chinensis cell cultures,effective inducer of taxanes production
same,Baccatin III,[1]; dose 5 micromol/l,92 mg/L
same,Paclitaxel,[1]; dose 5 micromol/l,235 mg/L
same,Total taxanes,[1]; dose 5 micromol/l,423 mg/L
same,Baccatin III,[1]; dose 20 micromol/l,114 mg/L
same,Paclitaxel,[1]; dose 20 micromol/l,230 mg/L
same,Total taxanes,[1]; dose 20 micromol/l,441 mg/L
same,Baccatin III,[1]; dose 50 micromol/l,174 mg/L
same,Paclitaxel,[1]; dose 50 micromol/l,254 mg/L
same,Total taxanes,[1]; dose 50 micromol/l,580 mg/L
same,Baccatin III,[1]; dose 100 micromol/l,313 mg/L
same,Paclitaxel,[1]; dose 100 micromol/l,360 mg/L
same,Total taxanes,[1]; dose 100 micromol/l,962 mg/L
same,Baccatin III,[1]; dose 200 micromol/l,307 mg/L
same,Paclitaxel,[1]; dose 200 micromol/l,375 mg/L
same,Total taxanes,[1]; dose 200 micromol/l,1060 mg/L
same,Baccatin III,[1]; dose 500 micromol/l,1 mg/L
same,Paclitaxel,[1]; dose 500 micromol/l,0 mg/L
same,Total taxanes,[1]; dose 500 micromol/l,105 mg/L
6-ethyl-indanoyl-isoleucine [6-EII],interaction with silver on taxane production,[2],act synergistically
same,activity on taxane production compared with methyl jasmonate,[3]; 12-day fed batch treatment,comparable activity
same,Baccatin III,[3]; [11],159 mg/L
same,Paclitaxel,[3]; [11],443 mg/L
same,Baccatin III,[3]; [12],358 mg/L
same,Paclitaxel,[3]; [12],495 mg/L
same,Baccatin III,[3]; [13],605 mg/L
same,Paclitaxel,[3]; [13],556 mg/L
same,Baccatin III,[3]; [14],616 mg/L
same,Paclitaxel,[3]; [14],557 mg/L
same,Total,[3]; [11],694 mg/L
same,Total,[3]; [12],1301 mg/L
same,Total,[3]; [13],1693 mg/L
same,Total,[3]; [14],1702 mg/L
same,"taxane yield, 6-EII by itself","[4]; 6-EII 5-500 micromol/l, by itself",increase in taxane yield
same,"taxane yield, combined with NAA",[4]; 6-EII with 20 micromol/l NAA,yield improved by a significantly higher amount
same,"taxane yield, combined with NAA and silver",[4]; 6-EII with 20 micromol/l NAA and 50 micromol/l silver (thiosulfate complex),yield further increased
same,"taxane yield, combined with NAA, silver and MDCA","[4]; 6-EII with 20 micromol/l NAA, 50 micromol/l silver and 20 micromol/l MDCA",yield increased even further
same,activity in improving taxane production compared with MJS,[5]; all ingredients added at once,comparable activity in improving taxane production
same,interaction with auxin-type growth regulator NAA on taxane production,[5]; combined with NAA,interact positively to improve taxane production
same,interaction with glutamine on taxane production,[5]; combined with glutamine,interact favorably to improve taxane production
same,interaction with silver on overall production of taxanes,[5]; combined with silver (SLTS),works synergistically with silver to increase overall production of taxanes
same,effect on baccatin-III versus paclitaxel production,[5]; with silver,improve baccatin-III production without reducing the amount of paclitaxel produced
"CC[C@H](C)[C@H](NC(=O)c1cccc2c1CCC2=O)C(=O)OC [1-OII, 1-oxo-indane-carboxy-(L)-isoleucine-methyl ester amide]",induction of taxanes production,[6]; Taxus suspension culture,effective inducer of taxanes production
same,Baccatin III,[6]; dose 5 micromol/l,50 mg/L
same,Paclitaxel,[6]; dose 5 micromol/l,192 mg/L
same,Total taxanes,[6]; dose 5 micromol/l,300 mg/L
same,Baccatin III,[6]; dose 20 micromol/l,72 mg/L
same,Paclitaxel,[6]; dose 20 micromol/l,248 mg/L
same,Total taxanes,[6]; dose 20 micromol/l,400 mg/L
same,Baccatin III,[6]; dose 50 micromol/l,112 mg/L
same,Paclitaxel,[6]; dose 50 micromol/l,349 mg/L
same,Total taxanes,[6]; dose 50 micromol/l,580 mg/L
same,Baccatin III,[6]; dose 100 micromol/l,242 mg/L
same,Paclitaxel,[6]; dose 100 micromol/l,409 mg/L
same,Total taxanes,[6]; dose 100 micromol/l,822 mg/L
same,Baccatin III,[6]; dose 200 micromol/l,375 mg/L
same,Paclitaxel,[6]; dose 200 micromol/l,407 mg/L
same,Total taxanes,[6]; dose 200 micromol/l,1055 mg/L
same,Baccatin III,[6]; dose 500 micromol/l,45 mg/L
same,Paclitaxel,[6]; dose 500 micromol/l,67 mg/L
same,Total taxanes,[6]; dose 500 micromol/l,368 mg/L
CCc1cc2c(c(C(=O)N[C@H](C(=O)OC)[C@@H](C)CC)c1)CCC2=O [6-ethyl-1-oxo-indanoyl isoleucine methyl ester],elicitation of the coiling reaction of tendrils,[7],potent elicitor
CCC1CC1(NC(=O)C1=C[C@H](CC)C[C@@H]2C(=O)CC[C@H]12)C(=O)O (some centres unmarked) [Coronatine],induction of paclitaxel and taxanes biosynthesis,[8],shown to induce paclitaxel and taxanes biosynthesis
same,induction of tendril coiling,[9],strong inducers of tendril coiling
"CC/C=C\CC1C(=O)CCC1CC(=O)OC (centres unmarked) [MJS, methyl jasmonate, reference compound]",Baccatin III,[3]; [15],273 mg/L
same,Paclitaxel,[3]; [15],490 mg/L
same,Total,[3]; [15],1410 mg/L
same,activation of benzo[c]phenanthridine alkaloid accumulation,[10],much more effective
same,Baccatin III,[6]; dose 45 micromol/l,226 mg/L
same,Paclitaxel,[6]; dose 45 micromol/l,432 mg/L
same,Total taxanes,[6]; dose 45 micromol/l,854 mg/L
same,Baccatin III,[1]; dose 45 micromol/l,154 mg/L
same,Paclitaxel,[1]; dose 45 micromol/l,574 mg/L
same,Total taxanes,[1]; dose 45 micromol/l,912 mg/L
